Our source for the CC50 and Activity values is ChEMBL document CHEMBL1149299, “Hemolytic effects of water-soluble fullerene derivatives” (J Med Chem, 2004).

Data set [1] is described as follows: Cytotoxicity against […] HepG2 cells by MTT assay. It counts as cell-based. Conditions: read-out: LD50 (the source's name).
A short description of data set [2]: Cytotoxicity against pig LLC-PK1 cells by MTT assay. It counts as cell-based, Sus scrofa. Particulars: read-out: LD50 (the source's name).
A short description of data set [3]: Cytotoxicity against human MCF7 by MTT assay. It counts as cell-based. Particulars: MCF7 cells, read-out: LD50 (the source's name).
Data set [4] has as its system Erythrocyte. The data set can be described thus: Hemolytic activity in human RBC at 30 uM. Type of data set: functional.
For data set [5], the system named is Erythrocyte. In words: Hemolytic activity in human RBC at 80 uM. It counts as functional.

For the compound `C[N+]1(CCOCCOCCN)CCCC1`, the CC50 in data set [1], in data set [2] and in data set [3] was above 80 µM each time.

Consider `CCCCCCCCCCCCCCCCCC(=O)NCCOCCOCCN.Cl`, for which the CC50 in data set [1], in data set [2] and in data set [3] was above 80 µM throughout. Moreover, the Activity in data set [4] was determined as 34%; in data set [5] it was 53%.
